Measured values taken from patent publication US8420852B2, “Phospholipase A2 inhibitors and their use in treating neurological injury and disease” (The Regents of the University of California, priority 2007, dated 2013).

Molecular target: T1, human cPLA2 (GIVA) (Homo sapiens, UniProt P47712)
T1 sequence (P47712 1-749): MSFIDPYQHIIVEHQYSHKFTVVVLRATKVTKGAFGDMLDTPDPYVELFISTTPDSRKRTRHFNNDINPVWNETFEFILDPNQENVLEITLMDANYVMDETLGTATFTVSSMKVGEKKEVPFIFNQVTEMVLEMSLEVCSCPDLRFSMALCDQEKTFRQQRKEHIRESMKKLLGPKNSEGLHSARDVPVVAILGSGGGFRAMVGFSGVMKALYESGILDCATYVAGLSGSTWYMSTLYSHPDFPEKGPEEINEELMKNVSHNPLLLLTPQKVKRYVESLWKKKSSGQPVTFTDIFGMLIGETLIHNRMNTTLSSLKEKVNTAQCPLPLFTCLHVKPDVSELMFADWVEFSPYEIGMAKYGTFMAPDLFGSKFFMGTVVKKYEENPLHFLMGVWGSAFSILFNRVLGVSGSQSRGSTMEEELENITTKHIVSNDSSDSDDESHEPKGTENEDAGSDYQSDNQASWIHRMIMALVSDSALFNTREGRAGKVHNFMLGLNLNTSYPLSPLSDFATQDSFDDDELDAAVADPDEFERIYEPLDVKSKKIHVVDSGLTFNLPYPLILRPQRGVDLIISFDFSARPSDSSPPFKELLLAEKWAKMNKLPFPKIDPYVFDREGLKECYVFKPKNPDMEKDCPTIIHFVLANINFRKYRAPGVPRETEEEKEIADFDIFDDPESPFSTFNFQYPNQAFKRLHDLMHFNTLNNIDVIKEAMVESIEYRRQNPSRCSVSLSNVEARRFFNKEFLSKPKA
Experiment: cPLA2 (GIVA) specific mixed micelle assay
Format: biochemical
Settings: at 0.091 mol fraction
Protocol: The compounds described herein were tested for inhibition of PLA2s in in vitro assay systems. The data, summarized in the Examples, are represented as XI(50) values unless otherwise noted. XI(50) is defined as the inhibitor concentration that produced 50% inhibition. XI(50) is used as opposed to the more common IC50 because GIVA and GVIA PLA2 are active at a two-dimensional lipid interface rather than in three-dimensional solution. (Deems, Anal. Biochem., 287:1-16, 2000).
For the groups that received delayed treatment after symptoms occurred, mice were treated with daily intraperitoneal injections of AX059 starting from the first day of clinical symptoms, beginning on day 11; and AX115 starting from the first day of clinical peak (i.e., score 4), beginning of day 14. All inhibitors were administered for 2 weeks. The selectivity of the compounds for the different PLA2s is shown as the percentage inhibition in Table 1. The XI(50) is the mole fraction of the inhibitor in the total substrate interface required to inhibit the enzyme by 50%.
Compound AX115 was tested for its ability to inhibit human cPLA2 (GIVA) in a cPLA2 (GIVA) specific assay that uses mixed micelles of the substrate 1-palmitoyl-2-arachidonyl phosphatidylcholine and the detergent Triton X-100 (97:3) containing phosphatidylinositol 4,5-bisphosphate (400 μM) as previously described. […]

For `CCCCCCCCCCCCCCC(=O)C(=O)NCC(=O)OC` [AX115], the “Inhibition cPLA2 GIVA” value was 62%.
